The results in this text go back to article PMC10380841, “Synthesis, Characterization and Cytotoxic Evaluation of New Pyrrolo[1,2-b]pyridazines Obtained via Mesoionic Oxazolo-Pyridazinones” (International Journal of Molecular Sciences, 2023).

The subject of series [1] is SK-OV-3 ovary adenocarcinoma cells. The series is described as follows: MTS cytotoxicity assay, SK-OV-3. The format is cell-based. To be noted: Homo sapiens; SK-OV-3, 400 μM, 24 h; read-out: cell viability. In general terms: Formazan colour is commonly taken as a measure of viable cells.
For series [2] the test system is unchanged. The series is described as follows: MTS cytotoxicity assay, SK-OV-3. The format is cell-based, human. To be noted: Homo sapiens.
Series [3] deals with LoVo colon adenocarcinoma cells. As to the kind of experiment: MTS cytotoxicity assay, LoVo. Type of series: cell-based. As to conditions: Homo sapiens, 400 μM, read-out: cell viability.
Series [4] deals with Triticum vulgare root tips. The series is described as follows: Microscopic examination of Triticum root tips (mitotic film changes). To be noted: 1000 μM, 24 h contact. Type of series: in vivo. The procedure: Microscopic examination of Triticum vulgare root tips followed the mitotic film changes induced by the tested compounds. Observations were made after 24 h of contact of the caryopses with the test solutions. The study was made in comparison with DMSO control maintained under the same conditions as the samples. To obtain microscopic preparations, sectioning of wheat embryonic roots was carried out at about 5 mm from the tip and stained with dilute […] according to the La Cour procedure. The examination was conducted on a Euromex oxion series 110–240 V/50–60 Hz microscope with digital camera CEMEX 5 DC 5000 C and 40× and 100× lenses with cedar oil immersion (Sigma-Aldrich St. Louis, MO, USA).

The next series concerns Triticum aestivum L. The series is described as follows: Triticum test, phytotoxicity (main root length). The format is in vivo. As to conditions: 10–1000 µM. The method, then:
Phytobiological testing (Triticum test) was performed by the Constantinescu method which consists in determining the maximum active dilution of a compound. Depending on the duration of action, it can influence root elongation and the […] film. […] Embryonic wheat roots were obtained by germinating homogeneous wheat caryopses in Linhart pots. Then the caryopses with a main root length of 1 cm were placed in the test solutions. For the determination of the action of each compound, five dilutions in the concentration range of 10–1000 µM were obtained and 11 caryopses were placed in them. Petri dishes containing 15 mL of diluted solution were kept under constant conditions of temperature (25 °C), and humidity (60%), in the absence of light. […] The results were expressed in comparison with a 1% DMSO control.
Statistical analyses were performed using the computing and programming environment R, R, v. 4.2.1 [68], under Rstudio, v. 2022.07.2+576 “Spotted Wakerobin” for Windows (RStudio, PBC, Boston, 2022), both for the Triticum and Artemia tests. It used a parametric mixed-effects model (R package “lme4”) and a robust mixed-effects model (R package “robustlmm”), in which root length measurements (Triticum) from all three days were used as the dependent variable, whereas compound, concentration and time were treated as fixed effects, with time (day of measurement) also treated as a random effect. Assessing statistical significance for mixed-effects statistical models is controversial and complex, but as a pragmatic way of working, we have estimated p-values using the Kenward–Rogers approximation (R package “sjPlot”). A variety of R base functions and R packages were used to diagnose the regression models (“car” [72], “MASS” [73], and “gvlma” [74]). Mixed boxplot–dotplot plots were generated using the “ggplot2” package.
The “drc” R package was used to estimate IC50 values for the Triticum bioassay by nonlinear modeling. For Triticum, the relationship between root length and concentration was modeled using Weibull functions with 2, 3, or 4 parameters, depending on the data distribution, the models being selected from a range of several models with different functions and parameters, based on the Akaike’s information criterion (AIC).

“Also recorded” adds a separate entry of the source. Where two headings read alike, the source gives them in different places. Some results are limits rather than exact numbers.

In general, viability refers to a per cent measure of how many cells are alive, often set against a control. By IC50 is commonly meant the concentration at which inhibition is half-maximal. For `CCOC(=O)c1cc(CC)n2nc(-c3ccc(F)cc3)ccc12` [Compound 5e, Ethyl 7-ethyl-2-(4-fluorophenyl)pyrrolo[1,2-b]pyridazine-5-carboxylate], the viability at 400 µM in series [1] is 87.5%; in series [3] (24 h) it was 82.2%; in series [3] (48 h), 67.4%. The IC50 was at least 400 µM in series [2] (SK-OV-3, 24 h, read-out: IC50 Sk-OV-3 24 h); at least 400 µM in series [2] (SK-OV-3, 48 h, read-out: IC50 Sk-OV-3 48 h); 607 µM in the series on Triticum aestivum L. (Triticum aestivum, 72 h, Triticum root length, measured over three days). Besides, in series [4], the “mitotic film / cell changes in root tips” value is “undulated cell walls and modified shaped nuclei; also recorded: mitoinhibition”. Besides, the “effect on root length” value with Triticum aestivum L. (vs 1% DMSO control) is recorded as “concentration-dependent inhibitory effect”.
